Measured values from patent US8361999B2, “Methods of treating cholesterol gallstone disease with ezetimibe” (Pontificia Universidad Catolica de Chile, priority 2005, dated 2013).

Tests used:
[1] = test system: cholesterol and bile salt absorption; assay: Intestinal absorption of cholesterol and bile salts by fecal excretion of neutral and acidic sterols; type: in vivo, mouse; conditions: for Fecal excretion of bile acids / Fecal excretion of neutral sterols: pooled feces; for Fecal excretion of bile acids: days 12-14; for Fecal excretion of neutral sterols: last three days of 14
Method: (§1) Surgery and sample harvest. The groups were maintained for 14 days (protocol #1) or 30 days (protocol #2) in the different experimental conditions. During the last three days of the protocols, 24 h depositions were collected from the different groups (pool) to determine the fecal excretion of neutral sterols (cholesterol) and acidic sterols (bile salts). At the end of the time established in the protocols, the mice were anesthetized (between 08:00-10:00 AM) with an intraperitoneal pentobarbital injection in doses of 4.5 mg per 100 gr body weight (Amigo et al., 2000) and subjected to surgery. Standardized surgery consists in an extended […] and visualization of abdominal organs, including liver, biliary tree and gallbladder. First, we performed a resection of the gallbladder (cholecystectomy), with the cystic duct previously ligated (Amigo et al., 2002; Amigo et al., 2000; Amigo et al., 2003b). The gallbladder is removed and visually inspected to determine the presence of gallstones. Then, the gallbladder bile is extracted to analyze the presence of cholesterol crystals in the fresh samples under the microscope with polarized light (20×). Aliquots are stored at −20° C. for subsequent chemical analysis. Afterwards, the common biliary duct is cannulated (biliary fistula) with a P-10 polyethylene cannula to collect bile during 15 minutes, determine bile flow by gravimetry (1 g bile=1 ml; bile flow is expressed as μl/min/g of mouse liver) and for posterior chemical analysis of biliary lipids and glutathione, as specified later. […] Then, the liver is removed, weighted, frozen in liquid nitrogen and stored at −80 for subsequent analyses. The plasma is separated by centrifugation at 1,500 rpm and stored at −80° C. for later analysis. The animal protocols were approved by our institution Ethics Committee and the animals were treated according to international care rules for experimental animals.
(§2) Intestinal absorption of cholesterol and bile salts. The capacity of Ezetimibe to inhibit cholesterol and bile salt absorption was indirectly determined by quantification of neutral sterols (cholesterol) and acidic sterols (bile acids) present in the feces collected on day 12, 13 and 14 of the experiment (three days). In order to determine cholesterol (neutral sterols) fecal excretion, the feces were dried at 50° C. for three days and then weighted to obtain an average of fecal excretion per day (in grams). The feces were homogenized in a mortar, and 5 ml 2N NaOH:methanol, 1:1 are added per 100 mg (dry weight) aliquots of the homogenate. The sample is vortex and incubated at 60° C. for 1 h for saponification, then it is cooled and 5 ml petroleum ether is added followed by vigorous agitation to obtain the separation of the hydrophobic and hydrophilic phases. The samples are then centrifuged at 1,000 rpm for 10 minutes and the hydrophobic phase (upper layer) is recovered. Second and third extractions are performed by adding 5 ml petroleum ether to the hydrophilic phase. The hydrophobic phases are dried under gaseous nitrogen and the lipids are resuspended in 1 ml chloroform. 50 μl aliquots, in duplicate, are dried at room temperature, and total cholesterol is quantified according to the enzymatic method described above. The values obtained are expressed as μmoles cholesterol/day/100 g of mouse (Miettinen et al., 1965). In order to determine fecal excretion of bile acids the mice feces were collected during three days (days 12-14), dried at 50° C. for one week and weighted. The feces are then homogenized in a mortar; (^14C) cholic acid, 200,000 cpm is added to 1 g of the homogenate to determine the degree of recovery. The samples are then mixed with NaBr, NaOH and HCl, dissolved in ethanol and incubated at 120° C. for 8 h in a reflux system. The hydrolyzed fecal samples are resuspended in NaOH and dried under gaseous N2. The pellet obtained is resuspended in ethanol and run through Sep-Pak columns to eliminate all bile salts contaminants. […]

[2] = test system: C57BL/6J mice; assay: Lipid content and cholesterol saturation index in gallbladder bile; type: in vivo, mouse; conditions: for Gallbladder Bile Bile salts / Gallbladder Bile Cholesterol / Gallbladder Bile Colesterol Saturation Index / Gallbladder Bile Phospholipids: 14 days
Method: as §1, §2

[3] = test system: Ntcp; assay: Hepatic expression of bile salts transporter Ntcp (Western blot); type: in vivo, mouse
Excerpt: Expression of Specific Bile Salts (Ntcp, Bsep), Phospholipid (MDR2) and Organic Anions or Glutathione (MRP2); And Determination of Glutathione Synthesis (Gluthamylcystein-Synthetase (GGCS)).
Western Blot analysis. We evaluated protein expression levels of the bile salts transporters Ntcp (sinusoidal pole) and Bsep (cannicular pole) by Western blotting in total liver membranes or liver plasma membranes from mice treated with the different diets. Total membranes were obtained from liver fragments homogenized in Tris-HCl pH 7.5, MgCl2 and sucrose. The homogenates were centrifuged at 1,000 g to separate nuclei, and the supernatants were then centrifuged at 100,000 g. The pellet, containing the total membranes, was resuspended in the buffer described above and proteins were quantified by the Bradford method. Aliquots containing 50 μg protein were separated by SDS-PAGE and transfer to nitrocellulose. The membranes were incubated in buffer TBS-T (Tris-HCl pH 7.5, NaCl and Tween-20), milk 5% w/v plus the antibodies to evaluate the different proteins (Bsep, Ntcp). The secondary antibodies were IgG anti rabbit or anti mouse coupled to peroxidase. The protein signals were detected by the ECL method.

[4] = test system: SR-BI; assay: Hepatic expression of SR-BI; type: in vivo, mouse; conditions: 14 days
[5] = test system: cholesterol absorption; conditions: relative to SCH 48461; cited from earlier work

For `O=C1[C@H](CC[C@H](O)c2ccc(F)cc2)[C@@H](c2ccc(O)cc2)N1c1ccc(F)cc1` [Ezetimibe, (−)-1-(4-fluorophenyl)-(3R)-[3-(4-fluorophenyl)-(.S)-hydroxypropyl]-(4S)-(4-hydroxyphenyl)-2-azetidinone], the “Fecal excretion of bile acids” value ([1]; Chow + Ezetimibe) was 55.42 μmol/day/100 g mouse, the “Fecal excretion of neutral sterols” value ([1]; Chow + Ezetimibe) was 19.98 μmol/day/100 g mouse and the “Fecal excretion of bile acids” value ([1]; Lithogenic + Ezetimibe) was 909.20 μmol/day/100 g mouse. For the same compound, the “Fecal excretion of neutral sterols” value ([1]; Lithogenic + Ezetimibe) was 165.79 μmol/day/100 g mouse, the “effect on fecal excretion of bile salts” value ([1]; both on control and lithogenic diets) was “does not significantly affect” and the “increment of fecal excretion of neutral sterols vs control diet without Ezetimibe” value ([1]; control diet) was 37%. The “fecal excretion of neutral sterols (cholesterol) higher than in mice not treated with Ezetimibe” value ([1]; lithogenic diet) was 55%, the “Gallbladder Bile Bile salts” value ([2]; Chow + Ezetimibe) was 65.00 mmol/L and the “Gallbladder Bile Cholesterol” value ([2]; Chow + Ezetimibe) was 1.19 mmol/L. The “Gallbladder Bile Colesterol Saturation Index” value ([2]; Chow + Ezetimibe) was 51.7%, the “Gallbladder Bile Phospholipids” value ([2]; Chow + Ezetimibe) was 11.62 mmol/L and the “Gallbladder Bile Bile salts” value ([2]; Lithogenic + Ezetimibe) was 70.37 mmol/L. The “Gallbladder Bile Cholesterol” value ([2]; Lithogenic + Ezetimibe) was 1.35 mmol/L, the “Gallbladder Bile Colesterol Saturation Index” value ([2]; Lithogenic + Ezetimibe) was 53.2% and the “Gallbladder Bile Phospholipids” value ([2]; Lithogenic + Ezetimibe) was 12.92 mmol/L. The “changes in cholesterol content, bile salts or lecitine in gallbladder bile” value ([2]; control diet) was “did not induce significant changes”, the “cholesterol saturation index, with vs without Ezetimibe” value ([2]; control diet) was “similar” and the “decrease of cholesterol content in the gallbladder bile” value ([2]; lithogenic diet) was 50-60%. The “reduction in the cholesterol saturation index” value ([2]; lithogenic diet) was 50%, the “hepatic expression of Ntcp, lithogenic diet plus Ezetimibe vs lithogenic diet” value ([3]; 14 days) was “no significant differences” and the “decrease of Ntcp protein expression level on a lithogenic diet” value ([3]; FIG. 6 B, lithogenic diet with Ezetimibe vs plus water) was “significantly attenuated”. The “hepatic expression of SR-BI, lithogenic diet plus Ezetimibe vs lithogenic diet” value [4] was “no significant differences” and the “inhibitory activity in cholesterol absorption higher than predecessor analog (SCH 48461)” value [5] was 400 times.
